Among the data in patent US10717720B2, “Modified compound of andrographolide” (Heilongjiang Zhenbaodao Pharmaceutical Co., Ltd., priority 2015, dated 2020) are inhibition values, retold here.

One test relates to LPS-induced IL-6 release level from THP-1 cells. Briefly: Test of IL-6 release from THP-1 cells (LPS-induced, IL-6 in supernatant detected by CBA). It is filed as cell-based. To be noted: Homo sapiens, THP-1, 24 h, read-out: Inhibition rate @ 10 uM. As for the experimental part: Test of IL-6 Release from THP-1 Cells
The inhibitory effect of the compound on LPS-induced IL-6 release level from THP-1 cells was evaluated by measuring the level of IL-6 in the cell culture supernatant.
4 ul was taken from each above solution and added to lml of culture solution to make 120 uM, 40 uM, 12 uM, 4 uM. 50 ul per well was taken and added to wells with cells to give final concentrations of 30 uM, 10 uM, 3 uM, and 1 uM, respectively. Dexamethasone was added as a positive drug into an individual cell well with a final concentration of 100 nM. • c) Cell stimulation
The LPS 1 mg/ml solution was diluted to 800 ng/ml with the culture solution and added to the cell culture wells at 50 ul/well. • d) Cell incubation and detection
The cell culture plate was placed in a 37° C. incubator, and the supernatant was collected after culturing for 24 hours. The level of IL-6 in the supernatant was detected by CBA.
As for `C=C1CCC2[C@]3(C)CO[C@@H](C4CCCC4)O[C@@H]3CC[C@@]2(C)[C@@H]1CCOc1ccn(CC(=O)O)c(=O)c1` (stereo partly drawn) [Compound 428, 2-(4-(2-((3R,4aR,6aS,7R,10bR)-3-cyclopentyl-6a,10b-dimethyl-8-dihydromethylenedecahydro-1H-naphtho[2,1-d][1,3]dioxin-7-yl)ethoxy)-2-carbonylpyridin-1(2H)-yl)acetic acid], the inhibition at 10 µM lay in the range of 30 to 60%.

The test is the same for the next values; noted with them: Homo sapiens; inflammatory factor IL-6 detected by CBA; compound 10 uM; LPS-stimulated THP-1 cells, supernatant after 24 hours; read-out: Inhibition rate @ 10 uM.
With `C=C1CCC2[C@]3(C)CO[C@@H](C(C)C)O[C@@H]3CC[C@@]2(C)[C@@H]1CCOc1ccncc1` (stereo partly drawn) [Compound 411, 4-(2-((3R,4aR,6aS,7R,10bR)-3-isopropyl-6a,10b-dimethyl-8-dihydromethylenedecahydro-1H-naphtho[2,1-d][1,3]dioxin-7-yl)ethoxy)pyridine], the inhibition at 10 µM was > 60%.
Turning to `C=C1CCC2[C@]3(C)CO[C@@H](C4CCC4)O[C@@H]3CC[C@@]2(C)[C@@H]1CCOc1ccncc1` (stereo partly drawn) [Compound 412, 4-(2-((3R,4aR,6aS,7R,10bR)-3-cyclobutyl-6a,10b-dimethyl-8-dihydromethylenedecahydro-1H-naphtho[2,1-d][1,3]dioxin-7-yl)ethoxy)pyridine], the inhibition at 10 µM was > 60%.
Still for that read-out and setting: as for `C=C1CCC2[C@]3(C)CO[C@@H](C4CCCC4)O[C@@H]3CC[C@@]2(C)[C@@H]1CCOc1cnccc1C(=O)O` (stereo partly drawn) [Compound 415, 3-(2-((3R,4aR,6aS,7R,10bR)-3-cyclopentyl-6a,10b-dimethyl-8-dihydromethylenedecahydro-1H-naphtho[2,1-d][1,3]dioxin-7-yl)ethoxy)isonicotinic acid], the figure is > 60%.
With `C=C1CCC2[C@]3(C)COC4(CCCC4)O[C@@H]3CC[C@@]2(C)[C@@H]1CCOc1ccncc1` (stereo partly shown) [Compound 416], the inhibition at 10 µM is > 60%.
On the same count and under the same terms, next, `C=C1CCC2[C@]3(C)CO[C@@H](C4CCCC4)O[C@@H]3CC[C@@]2(C)[C@@H]1CCOc1c(C(=O)O)cncc1C(=O)O` (stereo partly drawn) [Compound 417, 4-(2-((3R,4aR,6aS,7R,10bR)-3-cyclopentyl-6a,10b-dimethyl-8-dihydromethylenedecahydro-1H-naphtho[2,1-d][1,3]dioxin-7-yl)ethoxy)pyridine-3,5-dicarboxylic acid]: < 30%; `C=C1CCC2[C@]3(C)CO[C@@H](C4CCCC4)O[C@@H]3CC[C@@]2(C)[C@@H]1CCOc1ccnc(OC)c1` (stereo partly drawn) [Compound 420, 4-(2-((3R,4aR,6aS,7R,10bR)-3-cyclopentyl-6a,10b-dimethyl-8-dihydromethylenedecahydro-1H-naphtho[2,1-d][1,3]dioxin-7-yl)ethoxy)-2-methoxypyridine]: < 30%; `C=C1CCC2[C@]3(C)CO[C@@H](C4CCCC4)O[C@@H]3CC[C@@]2(C)[C@@H]1CCOc1ccc(C(=O)O)cc1` (stereo partly drawn) [Compound 422, 4-(2-((3R,4aR,6aS,7R,10bR)-3-cyclopentyl-6a,10b-dimethyl-8-dihydromethylenedecahydro-1H-naphtho[2,1-d][1,3]dioxin-7-yl)ethoxy)benzoic acid]: 30 to 60%.
On the same count and under the same terms, as for `C=C1CCC2[C@]3(C)CO[C@@H](C4CCCC4)O[C@@H]3CC[C@@]2(C)[C@@H]1CCOc1cccc(C(=O)O)c1` (stereo partly drawn) [Compound 423, 3-(2-((3R,4aR,6aS,7R,10bR)-3-cyclopentyl-6a,10b-dimethyl-8-dihydromethylenedecahydro-1H-naphtho[2,1-d][1,3]dioxin-7-yl)ethoxy)benzoic acid], the figure is 30 to 60%; as for `C=C1CCC2[C@]3(C)CO[C@@H](C4CCCC4)O[C@@H]3CC[C@@]2(C)[C@@H]1CCOC1CCN(CC(=O)O)CC1` (stereo partly drawn) [Compound 426, 2-(4-(2-((3R,4aR,6aS,7R,10bR)-3-cyclopentyl-6a,10b-dimethyl-8-dihydromethylenedecahydro-1H-naphtho[2,1-d][1,3]dioxin-7-yl)ethoxy)piperidine-1-yl)acetic acid], 30 to 60%.
On the same count and under the same terms, next, `C=C1CCC2[C@]3(C)CO[C@@H](C4CCCCC4)O[C@@H]3CC[C@@]2(C)[C@@H]1CCOc1ccncc1` (stereo partly drawn) [Compound 429, 4-(2-((3R,4aR,6aS,7R,10bR)-3-cyclohexyl-6a,10b-dimethyl-8-dihydromethylenedecahydro-1H-naphtho[2,1-d][1,3]dioxin-7-yl)ethoxy)pyridine]: < 30%.
On to `C=C1CCC2[C@]3(C)CO[C@@H](C4CCCC4)O[C@@H]3CC[C@@]2(C)[C@@H]1CCOc1cc[nH]c(=O)c1` (stereo partly drawn) [Compound 430, 4-(2-((3R,4aR,6aS,7R,10bR)-3-cyclopentyl-6a,10b-dimethyl-8-dihydromethylenedecahydro-1H-naphtho[2,1-d][1,3]dioxin-7-yl)ethoxy)pyridin-2(1H)-one], for which the inhibition at 10 µM was in the range of 30 to 60%.
Same read-out and setting: next, `C=C1CCC2[C@]3(C)CO[C@@H](C4CCCC4)O[C@@H]3CC[C@@]2(C)[C@@H]1CCOc1cccnc1C(=O)O` (stereo partly drawn) [Compound 431, 3-(2-((3R,4aR,6aS,7R,10bR)-3-cyclopentyl-6a,10b-dimethyl-8-dihydromethylenedecahydro-1H-naphtho[2,1-d][1,3]dioxin-7-yl)ethoxy)-2-picolinic acid]: > 60%.
Same read-out and setting: next, `C=C1CCC2[C@]3(C)CO[C@@H](C4CCCC4)O[C@@H]3CC[C@@]2(C)[C@@H]1CCOc1ccc(C(=O)O)nc1` (stereo partly drawn) [Compound 432, 5-(2-((3R,4aR,6aS,7R,10bR)-3-cyclopentyl-6a,10b-dimethyl-8-dihydromethylenedecahydro-1H-naphtho[2,1-d][1,3]dioxin-7-yl)ethoxy)-2-picolinic acid]: > 60%; `C=C1CCC2[C@]3(C)CO[C@@H](C4CCCC4)O[C@@H]3CC[C@@]2(C)[C@@H]1CCN1CCN(C)CC1` (stereo partly drawn) [Compound 433, 1-(2-((3R,4aR,6aS,7R,10bR)-3-cyclopentyl-6a,10b-dimethyl-8-methylene-decahydro-1H-naphtho[2,1-d][1,3]dioxin-7-yl)ethyl)-4-methylpiperazine]: > 60%; `C=C1CCC2[C@]3(C)CO[C@@H](C4CCCC4)O[C@@H]3CC[C@@]2(C)[C@@H]1CCN1CCC[C@H]1C(=O)O` (stereo partly shown) [Compound 435]: < 30%.
Same read-out and setting: as for `C=C1CCC2[C@]3(C)CO[C@@H](C4CCCC4)O[C@@H]3CC[C@@]2(C)[C@@H]1CCOc1ncccc1C(=O)O` (stereo partly drawn) [Compound 436, 2-(2-((3R,4aR,6aS,7R,10bR)-3-cyclopentyl-6a,10b-dimethyl-8-dihydromethylenedecahydro-1H-naphtho[2,1-d][1,3]dioxin-7-yl)ethoxy)nicotinic acid], the figure is < 30%; as for `C=C1CCC2[C@]3(C)CO[C@@H](C4CCCC4)O[C@@H]3CC[C@@]2(C)[C@@H]1CCOc1cc(F)ccc1C(=O)O` (stereo partly drawn) [Compound 441, 2-(2-((3R,4aR,6aS,7R,10bR)-3-cyclopentyl-6a,10b-dimethyl-8-dihydromethylenedecahydro-1H-naphtho[2,1-d][1,3]dioxin-7-yl)ethoxy)-4-fluorobenzoic acid], 30 to 60%; as for `C=C1CCC2[C@]3(C)CO[C@@H](C4CCCC4)O[C@@H]3CC[C@@]2(C)[C@@H]1CCOc1cncc(OC)c1` (stereo partly drawn) [Compound 442, 3-(2-((3R,4aR,6aS,7R,10bR)-3-cyclopentyl-6a,10b-dimethyl-8-dihydromethylenedecahydro-1H-naphtho[2,1-d][1,3]dioxin-7-yl)ethoxy)-5-methoxypyridine], 30 to 60%.
